Laboratory results as given in patent US10874652B2, “Muscle regeneration” (The Research Foundation for The State University of New York, priority 2016, dated 2020).

Tests used:
[1] = tested on: elastase; assay: Elastase activity in cell culture medium (fluorescent substrate cleavage); format: biochemical; details: 100 μM inhibitor, 0.75 U/mL purified elastase pre-incubated 1 hour
Protocol: The percentage of substrate cleavage (substrate conversion to product) was monitored over time by recording product formation every minute for 30 minutes (30 cycles of instrument recording) using a Pierce EZ-Reader.

[2] = tested on: dystrophic (mdx4cv) mice; assay: Muscle fibrosis, Picrosirius red staining of gastrocnemius muscle; format: in vivo, mouse; details: 200 mg/kg, 12 weeks, vs saline
Protocol: (§1) The objective of this experiment was to determine whether elastase inhibitors can reduce inflammation and/or fibrosis. To test this, cross-sections of the gastrocnemius muscle of mice that were treated with either Elastatinal or saline solution were stained with Picrosirius red, or labelled with an anti-CD45 antibody or an anti-laminin antibody. Picrosirius red allows to differentiate between collagen and the rest of the tissue as it stains the collagen a different colour. The anti-CD45 antibody allows the detection of infiltrating leukocytes (which are a marker of inflammation), and the anti-laminin antibody allows the detection of the periphery of myofibres. Both, the amount of fibrosis and the amount of infiltrated CD45+ leukocytes were reduced with Elastatinal treatment, supporting the hypothesis that elastase activity inhibition reduces fibrosis and inflammation.
(§2) For this experiment, the mice were treated with an injection of 200 mg/kg of Elastatinal dissolved in a saline solution (0.9% NaCl) to a concentration of 20 mg/mL. Control mice were treated with an equal volume of saline. […]
The amount of Picrosirius red staining was quantified by selecting re pixels and quantifying the red area using the ImageJ function “Analyze particles”. Averages of 10 technical replicates for each one of 3 biological replicates (N=30) were analysed (FIG. 10 B).

[3] = tested on: dystrophic (mdx4cv) mice; assay: Muscle inflammation, CD45+ leukocyte infiltration of gastrocnemius muscle; format: in vivo, mouse; details: 200 mg/kg, 12 weeks, vs saline
Protocol: as §1, §2
To measure the extent of inflammation, the numbers of infiltrating leucocyte, recognized by immunostaining for CD45 (BD Biosciences) were scored as percentage of area positive to CD45 immunostaining using a written script for Fiji softwate (available at http://fiji.sc) (FIG. 10 D).

[4] = tested on: myoblasts; assay: Elastase-induced myoblast cell loss ex vivo; format: cell-based; details: 100 μM inhibitor with 0.75 U/mL elastase, 24 hours, myoblasts on uncoated plates
Protocol: In order to determine the effect of elastase inhibitors on cultures myoblasts, myoblasts were seeded at the density of 7,000 cells/well in 12 multi-well plates (Corning) and grown for 1 day in growth medium. Twenty-four hours after plating, 0.75 U/mL of purified elastase (Sigma Aldrich) were added to the culture medium in the absence (Ela) or presence of either 100 μM Sivelestat (Ela+Sivelestat) or 100 μM Elastatinal (Ela+Elastatinal) and cultured for additional 24 hours. Quantification of total cell numbers per image was done in triplicates and plotted as average±standard error of the mean. NT=non-treated cultures, that received neither elastase nor elastase inhibitors. **=p<0.01.

[5] = tested on: dystrophic (mdx4cv) mice; assay: Grip strength, Kondziela's inverted screen test in dystrophic mice; format: in vivo, mouse
Protocol: To test whether elastase inhibition is effective in counteracting the devastating effects of the muscular dystrophy symptoms, we injected dystrophic (mdx4cv) mice with either 100 mg/Kg body weight of Elastatinal dissolved in sterile saline solution (0.9% […]) or with vehicle (sterile saline solution) alone (n=3) twice a week for 6 weeks then measured the grip strength of all 4 limbs using Kondziela's inverted screen test. Each animal was offered three attempts to reach 90 seconds of grip before falling then the best performance was assigned a score (1 to 6 for every 15 seconds spent on the grid, e.g.: 1-14 seconds=score 1, 15-29 seconds=score 2, etc.). Scores were averaged and plotted as mean±the standard error of the mean.
In addition to the above mentioned experiment, Elastatinal was dissolved in a saline solution (0.9% NaCl) to a concentration of 20 mg/mL and then either 200 mg/Kg body weight of Elastatinal or an equal volume of saline solution were injected twice a week for 12 weeks intraperitoneally into dystrophic (mdx4cv) mice. At 8, 10 and 12 weeks of treatment, muscle function (grip strength) of the mice was measured using Kondziella's inverted screen test. A 1-6 score was assigned for every 15 seconds of the total time spent by the mouse on the inverted grid such that a score of 6 indicates at least 90 seconds of latency to fall. […] Error bars are S.E.M. **=p<0.01.

[6] = tested on: dystrophic (mdx4cv) mice; assay: Muscle fibre size (minimum Feret diameter) in dystrophic mice; format: in vivo, mouse; details: 200 mg/Kg intraperitoneally twice a week, 12 weeks, gastrocnemius muscle, vs saline
Protocol: To test whether inhibition of elastase activity promoted muscle regeneration in vivo in dystrophic mice, dystrophic (mdx4cv strain) mice were treated with either the elastase inhibitor Elastatinal (dissolved in saline solution) or saline solution for 12 weeks and muscle fibre size was assayed.
Elastatinal (Enzo Life Sciences) was dissolved in a saline solution (0.9% NaCl) to the concentration of 20 mg/mL and then, either 200 mg/Kg body weight of Elastatinal or an equal volume of saline solution were injected twice a week intraperitoneally into the dystrophic (mdx4cv) mice. After 12 weeks of treatment animals were culled and several muscles dissected, embedded in Optimal Cutting Medium (OCT, Fisher) and frozen in liquid nitrogen-cooled isopentane (Sigma) for histopathological analysis.
To measure the extent of muscle regeneration, myofibre size was estimated. Sections of the gastrocnemius muscle of either Elastatinal-treated or saline-treated mice were immunostained to detect laminin which marks the periphery of each muscle fibre and then the programme SMASH′ was used to calculate the minimum Feret diameter as a direct measure of myofibre size.

| Structure (SMILES) | reduction of elastase activity [1] | amount of fibrosis [2] | amount of infiltrated CD45+ leukocytes [3] | elastase-induced cell loss [4] | muscle strength (grip strength) ([5]; 100 mg/Kg twice a week for 6 weeks, vs vehicle) | grip strength ([5]; 200 mg/Kg intraperitoneally twice a week for 12 weeks, measured at 8, 10 and 12 weeks, vs saline) | muscle fibre size (minimum Feret diameter) [6] |
| --- | --- | --- | --- | --- | --- | --- | --- |
| CC(C)C[C@H](NC(=O)N[C@H](C(=O)N[C@@H](CCC(N)=O)C(=O)N[C@@H](C)C=O)[C@@H]1CCNC(=N)N1)C(=O)O [Elastatinal] | approximately 80% | reduced | reduced | prevents elastase-induced cell loss | improved muscle strength | statistically significantly improved grip strength | increasing muscle fibre size |
| CC(C)(C)C(=O)Oc1ccc(S(=O)(=O)Nc2ccccc2C(=O)NCC(=O)O)cc1 [Sivelestat] | approximately 80% | – | – | prevents elastase-induced cell loss | – | – | – |
